Results reported in US20240210412A1, “SULFONYL-TRIAZOLE COMPOUNDS USEFUL AS LIGANDS AND INHIBITORS OF PROSTAGLANDIN REDUCTASE 2” (University of Virginia Patent Foundation, priority 2021, published 2024).

Tests used:
Assay in all cases: SILAC LC-MS ABPP
Type in all cases: cell-based
Settings in all cases: 25 μM 2 h, live DM93 cells
Q9BWD1 = target: T1, Q9BWD1 (Homo sapiens, UniProt Q9BWD1)
T1 construct: endogenous in cells; host or cells: DM93 cells (SILAC), treated live; soluble proteome analysed
In short: (§1)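 Ligand engagement is measured as loss of HHS-475 probe labelling at specific tyrosines. SILAC DM93 melanoma cells were treated in situ (25 μM ligand vs DMSO, 2 h, 37 °C; then 100 μM probe, 2 h), and modified peptides were quantified by high-resolution LC-MS/MS after desthiobiotin tagging and avidin capture.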

O00232 = target: T2, O00232 (Homo sapiens, UniProt O00232)
T2 construct: endogenous in cells; host or cells: DM93
In short: as §1

P22059 = target: T3, P22059 (Homo sapiens, UniProt P22059)
T3 construct: endogenous in cells; host or cells: DM93 (SILAC)
In short: as §1

Q9UPP1 = target: T4, Q9UPP1 (Homo sapiens, UniProt Q9UPP1)
T4 construct: endogenous in cells; host or cells: DM93 cells (SILAC)
In short: as §1

Q8IWS0 = target: T5, Q8IWS0 (Homo sapiens, UniProt Q8IWS0)
T5 construct: endogenous in cells; host or cells: DM93 cells (SILAC), live-cell treatment
In short: as §1

Q9UI12 = target: T6, Q9UI12 (Homo sapiens, UniProt Q9UI12)
T6 construct: endogenous in cells; host or cells: DM93 cells (SILAC)
In short: as §1

P24666 = target: T7, P24666 (Homo sapiens, UniProt P24666)
T7 construct: endogenous in cells; host or cells: DM93 (SILAC)
In short: as §1

Q9NZQ3 = target: T8, Q9NZQ3 (Homo sapiens, UniProt Q9NZQ3)
T8 construct: endogenous in cells; host or cells: DM93 cells (SILAC)
In short: as §1

Q9NW64 = target: T9, Q9NW64 (Homo sapiens, UniProt Q9NW64)
T9 construct: endogenous in cells; host or cells: DM93 cells (SILAC)
In short: as §1

Q7Z6E9 = target: T10, Q7Z6E9 (Homo sapiens, UniProt Q7Z6E9)
T10 construct: endogenous in cells; host or cells: DM93 cells (SILAC), live-cell treatment
In short: as §1

P78537 = target: T11, P78537 (Homo sapiens, UniProt P78537)
T11 construct: performing SuTEx compound screening directly in cells; endogenous in cells; host or cells: DM93 cells (SILAC)
In short: as §1

O75131 = target: T12, O75131 (Homo sapiens, UniProt O75131)
T12 construct: endogenous in cells; host or cells: DM93
In short: as §1

O00571 = target: T13, O00571 (Homo sapiens, UniProt O00571)
T13 construct: endogenous in cells; host or cells: DM93
In short: as §1

P51665 = target: T14, P51665 (Homo sapiens, UniProt P51665)
T14 construct: endogenous in cells; host or cells: DM93 cells (SILAC)
In short: as §1

Q9P2B4 = target: T15, Q9P2B4 (Homo sapiens, UniProt Q9P2B4)
T15 construct: endogenous in cells; host or cells: DM93 cells (SILAC)
In short: as §1

Q9H788 = target: T16, Q9H788 (Homo sapiens, UniProt Q9H788)
T16 construct: endogenous in cells; host or cells: DM93 cells (SILAC), treated live; soluble proteome analysed
In short: as §1

Q92734 = target: T17, Q92734 (Homo sapiens, UniProt Q92734)
T17 construct: endogenous in cells; host or cells: DM93 cells (SILAC), live-cell treatment
In short: as §1

P55795 = target: T18, P55795 (Homo sapiens, UniProt P55795)
T18 construct: Probe-modified proteins from the soluble fraction were conjugated to a desthiobiotin-azide tag; endogenous in cells; host or cells: DM93 cells (SILAC)
In short: as §1

T18 sequence (P55795 whole entry): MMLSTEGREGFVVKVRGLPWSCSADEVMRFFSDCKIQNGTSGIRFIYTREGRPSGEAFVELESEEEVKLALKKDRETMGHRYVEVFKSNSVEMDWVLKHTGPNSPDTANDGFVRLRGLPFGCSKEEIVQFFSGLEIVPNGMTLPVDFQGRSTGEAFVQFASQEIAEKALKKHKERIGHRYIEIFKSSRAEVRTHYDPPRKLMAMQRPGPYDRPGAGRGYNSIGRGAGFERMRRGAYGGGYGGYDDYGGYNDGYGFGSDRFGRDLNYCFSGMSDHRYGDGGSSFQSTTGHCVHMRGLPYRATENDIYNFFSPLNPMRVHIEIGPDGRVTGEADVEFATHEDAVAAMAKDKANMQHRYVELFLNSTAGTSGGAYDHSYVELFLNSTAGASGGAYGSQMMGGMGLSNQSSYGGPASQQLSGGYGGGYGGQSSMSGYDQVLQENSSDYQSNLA
T1 sequence (Q9BWD1 whole entry): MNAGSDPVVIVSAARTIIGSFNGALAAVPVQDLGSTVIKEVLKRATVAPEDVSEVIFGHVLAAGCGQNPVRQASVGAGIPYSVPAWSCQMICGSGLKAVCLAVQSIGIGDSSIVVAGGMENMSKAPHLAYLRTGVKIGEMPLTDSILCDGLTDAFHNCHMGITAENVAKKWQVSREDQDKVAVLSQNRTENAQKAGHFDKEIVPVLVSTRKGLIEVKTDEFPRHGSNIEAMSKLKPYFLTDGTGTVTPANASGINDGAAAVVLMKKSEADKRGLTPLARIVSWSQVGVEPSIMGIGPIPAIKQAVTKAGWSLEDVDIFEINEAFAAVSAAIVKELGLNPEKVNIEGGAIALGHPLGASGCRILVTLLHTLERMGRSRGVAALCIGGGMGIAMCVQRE
T4 sequence (Q9UPP1 whole entry): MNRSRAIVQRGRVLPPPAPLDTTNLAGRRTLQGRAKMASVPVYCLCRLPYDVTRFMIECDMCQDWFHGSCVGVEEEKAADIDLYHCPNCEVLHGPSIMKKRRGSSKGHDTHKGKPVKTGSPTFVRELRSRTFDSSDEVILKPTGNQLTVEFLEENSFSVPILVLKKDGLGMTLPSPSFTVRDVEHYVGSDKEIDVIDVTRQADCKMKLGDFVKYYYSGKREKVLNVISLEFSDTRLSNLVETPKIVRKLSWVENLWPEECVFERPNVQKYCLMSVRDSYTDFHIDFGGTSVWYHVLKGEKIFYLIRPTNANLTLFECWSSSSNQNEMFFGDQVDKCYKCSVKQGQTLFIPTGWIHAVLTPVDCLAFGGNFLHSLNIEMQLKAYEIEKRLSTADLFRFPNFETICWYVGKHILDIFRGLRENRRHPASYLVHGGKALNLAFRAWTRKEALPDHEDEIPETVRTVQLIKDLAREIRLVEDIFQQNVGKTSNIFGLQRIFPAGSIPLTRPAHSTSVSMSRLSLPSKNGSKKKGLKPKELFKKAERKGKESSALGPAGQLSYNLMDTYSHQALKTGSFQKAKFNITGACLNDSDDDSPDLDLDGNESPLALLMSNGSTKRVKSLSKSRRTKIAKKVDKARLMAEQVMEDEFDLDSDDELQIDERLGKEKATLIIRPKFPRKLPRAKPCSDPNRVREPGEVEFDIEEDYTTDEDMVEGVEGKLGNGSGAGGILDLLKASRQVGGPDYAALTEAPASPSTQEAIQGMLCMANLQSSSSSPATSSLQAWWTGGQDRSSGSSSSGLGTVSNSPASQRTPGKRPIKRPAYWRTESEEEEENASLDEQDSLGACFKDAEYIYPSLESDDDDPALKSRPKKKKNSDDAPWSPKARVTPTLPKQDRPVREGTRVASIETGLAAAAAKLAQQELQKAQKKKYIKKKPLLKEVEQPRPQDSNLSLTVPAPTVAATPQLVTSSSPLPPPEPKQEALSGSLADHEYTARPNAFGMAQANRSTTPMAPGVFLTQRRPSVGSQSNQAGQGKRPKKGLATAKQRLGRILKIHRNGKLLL
T17 sequence (Q92734 whole entry): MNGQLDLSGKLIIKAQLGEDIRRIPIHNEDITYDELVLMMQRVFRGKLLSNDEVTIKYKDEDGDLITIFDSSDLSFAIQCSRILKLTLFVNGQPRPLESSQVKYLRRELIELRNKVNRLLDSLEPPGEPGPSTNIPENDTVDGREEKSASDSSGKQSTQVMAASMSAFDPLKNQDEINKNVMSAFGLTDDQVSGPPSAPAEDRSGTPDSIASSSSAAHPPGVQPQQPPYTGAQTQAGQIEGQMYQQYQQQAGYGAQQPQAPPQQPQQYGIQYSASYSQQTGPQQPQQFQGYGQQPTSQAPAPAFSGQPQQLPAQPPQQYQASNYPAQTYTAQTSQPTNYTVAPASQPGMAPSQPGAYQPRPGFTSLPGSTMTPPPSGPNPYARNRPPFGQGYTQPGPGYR
T15 sequence (Q9P2B4 whole entry): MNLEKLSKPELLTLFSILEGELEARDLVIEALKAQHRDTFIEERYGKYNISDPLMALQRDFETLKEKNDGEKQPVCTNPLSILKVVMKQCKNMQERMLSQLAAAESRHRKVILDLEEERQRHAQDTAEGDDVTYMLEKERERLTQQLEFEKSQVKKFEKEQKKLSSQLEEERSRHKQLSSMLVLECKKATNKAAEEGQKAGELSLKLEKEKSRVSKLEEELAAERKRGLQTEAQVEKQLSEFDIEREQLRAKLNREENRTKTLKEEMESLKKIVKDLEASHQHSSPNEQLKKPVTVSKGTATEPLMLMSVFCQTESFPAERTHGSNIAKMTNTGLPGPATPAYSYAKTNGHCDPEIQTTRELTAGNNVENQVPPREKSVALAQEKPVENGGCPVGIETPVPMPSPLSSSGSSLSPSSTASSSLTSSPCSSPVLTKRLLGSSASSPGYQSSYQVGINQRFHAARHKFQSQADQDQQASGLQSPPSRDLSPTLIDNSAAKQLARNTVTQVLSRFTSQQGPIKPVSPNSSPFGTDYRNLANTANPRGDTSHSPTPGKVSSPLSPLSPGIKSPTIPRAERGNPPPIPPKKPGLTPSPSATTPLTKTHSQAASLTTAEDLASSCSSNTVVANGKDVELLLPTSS
T12 sequence (O75131 whole entry): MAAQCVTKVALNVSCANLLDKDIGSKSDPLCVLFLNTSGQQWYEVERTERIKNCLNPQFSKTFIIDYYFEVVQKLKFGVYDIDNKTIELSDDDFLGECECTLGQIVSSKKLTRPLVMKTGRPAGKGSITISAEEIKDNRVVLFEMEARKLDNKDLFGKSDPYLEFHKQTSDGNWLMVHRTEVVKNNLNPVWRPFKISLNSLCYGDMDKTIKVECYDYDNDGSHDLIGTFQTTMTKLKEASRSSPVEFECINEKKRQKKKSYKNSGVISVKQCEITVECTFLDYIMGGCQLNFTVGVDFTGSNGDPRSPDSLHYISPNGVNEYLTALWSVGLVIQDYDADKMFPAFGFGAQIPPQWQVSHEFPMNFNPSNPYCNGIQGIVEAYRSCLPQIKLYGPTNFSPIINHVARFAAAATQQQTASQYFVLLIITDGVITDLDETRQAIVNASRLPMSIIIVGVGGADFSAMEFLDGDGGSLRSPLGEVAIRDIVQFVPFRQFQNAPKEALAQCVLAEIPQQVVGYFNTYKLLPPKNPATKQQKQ
T9 sequence (Q9NW64 whole entry): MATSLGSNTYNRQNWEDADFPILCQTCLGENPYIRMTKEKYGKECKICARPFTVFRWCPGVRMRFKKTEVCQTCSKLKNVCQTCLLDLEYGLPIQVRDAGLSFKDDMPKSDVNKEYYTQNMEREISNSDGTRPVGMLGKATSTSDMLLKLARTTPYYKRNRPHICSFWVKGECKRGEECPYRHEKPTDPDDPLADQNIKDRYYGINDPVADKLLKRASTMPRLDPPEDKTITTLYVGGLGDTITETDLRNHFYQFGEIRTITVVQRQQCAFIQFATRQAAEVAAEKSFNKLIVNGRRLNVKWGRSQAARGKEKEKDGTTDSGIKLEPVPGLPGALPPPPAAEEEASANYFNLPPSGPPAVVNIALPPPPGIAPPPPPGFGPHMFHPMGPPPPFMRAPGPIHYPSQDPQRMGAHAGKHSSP
T13 sequence (O00571 whole entry): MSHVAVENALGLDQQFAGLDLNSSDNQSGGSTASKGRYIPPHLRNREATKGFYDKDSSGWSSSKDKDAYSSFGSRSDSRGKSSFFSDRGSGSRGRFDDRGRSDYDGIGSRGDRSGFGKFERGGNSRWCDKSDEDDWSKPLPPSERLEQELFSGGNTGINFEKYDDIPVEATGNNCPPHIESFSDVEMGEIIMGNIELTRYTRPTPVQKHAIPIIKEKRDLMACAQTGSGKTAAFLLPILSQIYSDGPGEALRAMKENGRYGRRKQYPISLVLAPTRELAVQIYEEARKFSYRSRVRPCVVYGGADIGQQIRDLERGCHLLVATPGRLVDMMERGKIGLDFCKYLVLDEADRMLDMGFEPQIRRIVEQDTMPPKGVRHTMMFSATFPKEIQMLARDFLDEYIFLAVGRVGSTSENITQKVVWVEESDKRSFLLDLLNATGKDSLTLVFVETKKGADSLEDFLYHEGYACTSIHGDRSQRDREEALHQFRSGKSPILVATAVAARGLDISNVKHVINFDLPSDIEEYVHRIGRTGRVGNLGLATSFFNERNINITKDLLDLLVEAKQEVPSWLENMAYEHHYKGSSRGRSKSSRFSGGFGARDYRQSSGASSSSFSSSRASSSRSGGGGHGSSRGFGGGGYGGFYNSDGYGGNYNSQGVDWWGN
T11 sequence (P78537 whole entry): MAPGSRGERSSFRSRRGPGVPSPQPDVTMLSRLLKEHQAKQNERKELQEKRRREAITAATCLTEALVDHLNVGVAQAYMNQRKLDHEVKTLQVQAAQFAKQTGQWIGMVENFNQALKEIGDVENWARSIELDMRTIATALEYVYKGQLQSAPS
T7 sequence (P24666 whole entry): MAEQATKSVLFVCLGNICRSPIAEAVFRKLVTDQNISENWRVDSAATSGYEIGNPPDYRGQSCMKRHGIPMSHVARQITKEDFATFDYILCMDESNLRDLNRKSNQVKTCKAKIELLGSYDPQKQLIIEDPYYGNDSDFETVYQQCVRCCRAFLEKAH

How did the “liganded tyrosine site 237” value (Q9BWD1) turn out when `O=C(NC1CC1)c1ccc(S(=O)(=O)n2cncn2)cc1` [HHS-0101, 4-((1H-1,2,4-triazol-1-yl)sulfonyl)-N-cyclopropylbenzamide] was run?
The value was “HHS0101.Y|HHS0201.Y|HHS0301.Y|HHS0401.Y (tyrosine sites that showed >80% reductions (SR >5) in probe labeling in cells treated with compounds (liganded sites))”.

And the “liganded tyrosine site 20” value (O00232)?
The value was “HHS0101.Y|HHS0301.Y|HHS0401.Y|HHS0701.Y (tyrosine sites that showed >80% reductions (SR >5) in probe labeling in cells treated with compounds (liganded sites))”.

What does the source list for `O=C(NCC1CC1)c1ccc(S(=O)(=O)n2cncn2)cc1` [HHS-0201, 4-((1H-1,2,4-triazol-1-yl)sulfonyl)-N-(cyclopropylmethyl)benzamide]?
liganded tyrosine site 764 (P22059): HHS0201.Y|HHS0701.Y (tyrosine sites that showed >80% reductions (SR >5) in probe labeling in cells treated with compounds (liganded sites)); liganded tyrosine site 383 (Q9UPP1): HHS0201.Y (tyrosine sites that showed >80% reductions (SR >5) in probe labeling in cells treated with compounds (liganded sites)); liganded tyrosine site 303 (Q8IWS0): HHS0201.Y (tyrosine sites that showed >80% reductions (SR >5) in probe labeling in cells treated with compounds (liganded sites)); liganded tyrosine site 163 (Q9UI12): HHS0201.Y|HHS0301.Y (tyrosine sites that showed >80% reductions (SR >5) in probe labeling in cells treated with compounds (liganded sites)); liganded tyrosine site 88 (P24666): HHS0201.Y|HHS0401.Y|HHS0701.Y (tyrosine sites that showed >80% reductions (SR >5) in probe labeling in cells treated with compounds (liganded sites))

`O=C(NC1CCCCC1)c1ccc(S(=O)(=O)n2cncn2)cc1` [HHS-0301, 4-((1H-1,2,4-triazol-1-yl)sulfonyl)-N-cyclohexylbenzamide] was tested. Which “liganded tyrosine site 52” value (Q9NZQ3) did it give?
The value was “HHS0301.Y (tyrosine sites that showed >80% reductions (SR >5) in probe labeling in cells treated with compounds (liganded sites))”.

What about the “liganded tyrosine site 116” value (Q9NW64) of the same compound?
The value was “HHS0301.Y (tyrosine sites that showed >80% reductions (SR >5) in probe labeling in cells treated with compounds (liganded sites))”.

And the “liganded tyrosine site 218” value (Q7Z6E9)?
The value was “HHS0301.Y (tyrosine sites that showed >80% reductions (SR >5) in probe labeling in cells treated with compounds (liganded sites))”.

And the “liganded tyrosine site 78” value (P78537)?
Its value is “HHS0301.Y|HHS0401.Y|HHS0701.Y (tyrosine sites that showed >80% reductions (SR >5) in probe labeling in cells treated with compounds (liganded sites))”.

How did the “liganded tyrosine site 203” value (O75131) turn out when `O=C(NCc1ccccc1)c1ccc(S(=O)(=O)n2cncn2)cc1` [HHS-0401, 4-((1H-1,2,4-triazol-1-yl)sulfonyl)-N-benzylbenzamide] was run?
Its value is “HHS0401.Y (tyrosine sites that showed >80% reductions (SR >5) in probe labeling in cells treated with compounds (liganded sites))”.

What about the “liganded tyrosine site 266” value (O00571) of the same compound?
The value was “HHS0401.Y (tyrosine sites that showed >80% reductions (SR >5) in probe labeling in cells treated with compounds (liganded sites))”.

With `O=C(c1ccc(S(=O)(=O)n2cncn2)cc1)N1CCC(c2ccccc2)CC1` [HHS-0701, (4-((1H-1,2,4-triazol-1-yl)sulfonyl)phenyl)(4-phenylpiperidin-1-yl)methanone] as the compound, how does the “liganded tyrosine site 74” value (P51665) read?
Its value is “HHS0701.Y (tyrosine sites that showed >80% reductions (SR >5) in probe labeling in cells treated with compounds (liganded sites))”.

And the “liganded tyrosine site 343” value (Q9P2B4)?
Its value is “HHS0701.Y (tyrosine sites that showed >80% reductions (SR >5) in probe labeling in cells treated with compounds (liganded sites))”.

And the “liganded tyrosine site 194” value (Q9H788)?
The value was “HHS0701.Y (tyrosine sites that showed >80% reductions (SR >5) in probe labeling in cells treated with compounds (liganded sites))”.

What about the “liganded tyrosine site 392” value (Q92734) of the same compound?
Its value is “HHS0701.Y (tyrosine sites that showed >80% reductions (SR >5) in probe labeling in cells treated with compounds (liganded sites))”.

And the “liganded tyrosine site 240” value (P55795)?
The value was “HHS0701.Y (tyrosine sites that showed >80% reductions (SR >5) in probe labeling in cells treated with compounds (liganded sites))”.

What about the “liganded tyrosine site 243” value (P55795) of the same compound?
The value was “HHS0701.Y (tyrosine sites that showed >80% reductions (SR >5) in probe labeling in cells treated with compounds (liganded sites))”.
